Experiments:
[1] = Dynamic Vapor Sorption (DVS) % water reduction of treated hair
Protocol: The % water reduction is calculated as follows:
% Water reduction=[(B−A)×100]/B

[2] = Additional evaluations: expert rating of hair switches for frizz, clean feel and greasy feel; details: non-aqueous compositions, Tables 9 and 10
Protocol: […] The switch is kept at high humidity (above 85%) for 2 hours. Then, ten experts are asked to rate each hair switch in terms of frizz, clean feel, and greasy feel, based on a 5 point scale, 5 being the highest and 1 being the lowest rating.
Additional non-aqueous leave-on treatment compositions are prepared (Tables 9 and 10) according to the procedure described above, which are used to treat hair switches using the procedure described above (amount of 0.10 g of composition per g of hair). The switch is kept at high humidity (above 85%) for 2 hours. Then, ten experts are asked to rate each hair switch in terms of frizz, clean feel and greasy feel, based on a 5 point scale, 5 being the highest and 1 being the lowest rating.

[3] = Class II materials, hair 0% RH versus 90% RH, versus control hair
[4] = Class I materials, 1% wt/vol, hair 0% RH versus 90% RH, versus control hair

Compound: Sorbitan caprylate
- % Water reduction [1, 3]: 11%

Compound: O=C(O)c1ccc(O)cc1O [2,4-Dihydroxybenzoic acid]
- % Water reduction [1, 4]: 30%
- Results of hair switch rating in words (frizz protection, clean feel, greasy feel) [2]: provide fizz protection with clean feel and without greasy feel negative

Compound: O=C(O)c1cc(Cl)ccc1O [5-Chlorosalicylic acid]
- Results of hair switch rating in words (frizz protection, clean feel, greasy feel) [2]: provide fizz protection with clean feel and without greasy feel negative

Compound: O=C(OCCO)c1ccccc1O [2-Hydroxyethyl salicylate]
- % Water reduction [1, 3]: 10%
- Results of hair switch rating in words (frizz protection, clean feel, greasy feel) [2]: provide frizz protection with clean feel and without greasy feel negative

Compound: C/C(=C\CO)CCC[C@H](C)CCC[C@H](C)CCCC(C)C [Phytol]
- % Water reduction [1, 3]: 14%

Compound: O=C(O)c1cccc(O)c1 [3-Hydroxybenzoic Acid]
- % Water reduction [1, 4]: 20%

Compound: CCCCCCCCCCCCCC(=O)OC(C)C [Isopropyl myristate]
- % Water reduction [1, 3]: 12%

Compound: CCCCC/C=C\C/C=C\CCCCCCCC(=O)OCC [Ethyl linoleate]
- % Water reduction [1, 3]: 8%

Compound: O=S(=O)(O)c1ccc(O)cc1 [4-Hydroxybenzenesulphonic acid]
- Results of hair switch rating in words (frizz protection, clean feel, greasy feel) [2]: provide fizz protection with clean feel and without greasy feel negative

Compound: COc1cc(/C=C/C(=O)O)ccc1O [Trans-Ferulic Acid]
- % Water reduction [1, 4]: 6%

Compound: CCCCCCCC/C=C\CCCCCCCC(=O)O [Oleic Acid]
- % Water reduction [1, 3]: 14%

Compound: O=C(O)c1ccc(O)c(O)c1 [3,4-Dihydroxybenzoic acid]
- % Water reduction [1, 4]: 20%

Compound: CC(C)CCCCCCCCCCCCCCCOC(=O)CCCCCCCCCCCCCCC(C)C [Isostearyl isostearate]
- % Water reduction [1, 3]: 11%
- Results of hair switch rating in words (frizz protection, clean feel, greasy feel) [2]: provide frizz protection with clean feel and without greasy feel negative

Compound: O=C(O)c1ccccc1O [Salicylic acid]
- % Water reduction ([1]; Table 6, 1% salicylic acid in ethanol:water (50:50), final pH 3.2 (column pH 3)): 30%
- % Water reduction ([1]; Table 6, 1% salicylic acid in ethanol:water (50:50), final pH 4.2): 27%
- % Water reduction ([1]; Table 6, 1% salicylic acid in ethanol:water (50:50), final pH 7): 22%
- % Water reduction ([1]; Table 6, 1% salicylic acid in ethanol:water (50:50), final pH 10): 15%
- Results of hair switch rating in words (frizz protection, clean feel, greasy feel) [2]: provide fizz protection with clean feel and without greasy feel negative

Compound: CCCCCC[C@@H](O)C/C=C\CCCCCCCC(=O)O [Ricinoleic acid]
- % Water reduction [1, 3]: 8.8%

Compound: CCOC(=O)c1cc(O)c(O)c(O)c1 [Ethyl gallate]
- % Water reduction [1, 3]: 17%

Compound: CCCCCCCC/C=C\CCCCCCCC(=O)OCC(O)CO (stereo not shown) [Glyceryl monooleate]
- % Water reduction [1, 3]: 5%

Compound: Nc1ccc(O)cc1 [4-Aminophenol]
- % Water reduction [1, 4]: 10%

Compound: CCCCCCCCC(CO)CCCCCC (stereo not shown) [2-Hexyl-1-decanol]
- % Water reduction [1, 3]: 11%
- Results of hair switch rating in words (frizz protection, clean feel, greasy feel) [2]: provide frizz protection with clean feel and without greasy feel negative

Compound: CC(C)C(=O)O [Isobutyric acid]
- % Water reduction [1, 3]: 5%

Source: patent US20180289605A1, “NON-AQUEOUS COMPOSITION FOR HAIR FRIZZ REDUCTION” (The Procter & Gamble Company, priority 2017, published 2018)
